According to ChEMBL document CHEMBL5291721, “A preclinical secondary pharmacology resource illuminates target-adverse drug reaction associations of marketed drugs” (Nat Commun, 2023):

Columns and labels:
[1] = target: T1, Muscarinic acetylcholine receptor M1 (Homo sapiens, UniProt P11229); assay type: functional, cell-based
T1 sequence (P11229 whole entry): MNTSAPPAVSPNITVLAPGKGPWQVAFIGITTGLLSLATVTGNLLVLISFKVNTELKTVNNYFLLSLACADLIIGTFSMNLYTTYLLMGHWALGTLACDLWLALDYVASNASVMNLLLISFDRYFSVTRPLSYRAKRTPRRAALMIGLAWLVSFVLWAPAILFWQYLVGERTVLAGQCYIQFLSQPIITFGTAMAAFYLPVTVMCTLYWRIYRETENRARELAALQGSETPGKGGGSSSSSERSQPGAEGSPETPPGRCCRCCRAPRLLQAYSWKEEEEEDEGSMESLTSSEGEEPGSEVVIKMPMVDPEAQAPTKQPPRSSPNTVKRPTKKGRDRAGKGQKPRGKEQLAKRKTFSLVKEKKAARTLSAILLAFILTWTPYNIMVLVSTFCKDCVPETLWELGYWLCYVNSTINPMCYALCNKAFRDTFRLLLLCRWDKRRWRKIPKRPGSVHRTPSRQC

[2] = target: Prostaglandin G/H synthase 1 (Homo sapiens, UniProt P23219); assay type: functional
[3] = target: T2, Alpha-1A adrenergic receptor (Homo sapiens, UniProt P35348); assay type: functional, cell-based
T2 sequence (P35348 whole entry): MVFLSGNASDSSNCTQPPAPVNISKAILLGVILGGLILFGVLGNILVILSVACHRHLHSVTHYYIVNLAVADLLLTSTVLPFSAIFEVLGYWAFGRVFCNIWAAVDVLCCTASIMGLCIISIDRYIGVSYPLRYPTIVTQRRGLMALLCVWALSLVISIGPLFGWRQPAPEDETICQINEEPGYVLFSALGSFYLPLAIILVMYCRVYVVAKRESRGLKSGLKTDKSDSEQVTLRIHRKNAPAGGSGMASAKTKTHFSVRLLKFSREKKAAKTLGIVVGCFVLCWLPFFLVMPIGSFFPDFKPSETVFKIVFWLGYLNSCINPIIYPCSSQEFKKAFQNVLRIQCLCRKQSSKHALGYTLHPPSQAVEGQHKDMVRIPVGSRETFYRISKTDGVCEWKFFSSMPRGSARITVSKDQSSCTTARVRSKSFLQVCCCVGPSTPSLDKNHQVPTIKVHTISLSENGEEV

Androgen receptor = target: T3, Androgen receptor (Homo sapiens, UniProt P10275)
T3 sequence (P10275 whole entry): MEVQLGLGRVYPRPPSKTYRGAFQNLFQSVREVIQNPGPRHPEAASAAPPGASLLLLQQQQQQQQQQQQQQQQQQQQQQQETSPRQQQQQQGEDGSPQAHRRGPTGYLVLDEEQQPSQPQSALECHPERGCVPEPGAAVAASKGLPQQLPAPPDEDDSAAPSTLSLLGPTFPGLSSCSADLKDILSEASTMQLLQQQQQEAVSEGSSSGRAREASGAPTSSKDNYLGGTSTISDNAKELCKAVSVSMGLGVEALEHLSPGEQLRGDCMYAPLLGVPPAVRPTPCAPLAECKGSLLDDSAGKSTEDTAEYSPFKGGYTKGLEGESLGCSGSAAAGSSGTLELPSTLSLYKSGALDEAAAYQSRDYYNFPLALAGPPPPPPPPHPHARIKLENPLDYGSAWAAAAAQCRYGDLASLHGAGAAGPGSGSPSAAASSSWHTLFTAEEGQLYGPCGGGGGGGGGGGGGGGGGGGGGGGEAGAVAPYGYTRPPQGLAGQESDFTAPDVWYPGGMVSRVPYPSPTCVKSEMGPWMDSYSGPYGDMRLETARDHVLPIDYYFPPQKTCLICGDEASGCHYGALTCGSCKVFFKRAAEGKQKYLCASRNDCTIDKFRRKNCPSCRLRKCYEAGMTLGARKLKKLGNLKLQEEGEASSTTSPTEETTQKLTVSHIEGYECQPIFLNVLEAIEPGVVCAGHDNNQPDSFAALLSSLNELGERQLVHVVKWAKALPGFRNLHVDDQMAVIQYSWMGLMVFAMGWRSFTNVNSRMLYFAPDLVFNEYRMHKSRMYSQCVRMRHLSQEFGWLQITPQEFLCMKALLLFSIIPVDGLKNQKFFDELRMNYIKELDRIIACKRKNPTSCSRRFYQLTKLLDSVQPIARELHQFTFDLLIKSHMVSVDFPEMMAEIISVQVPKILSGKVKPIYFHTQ

Adenosine receptor A1 = target: T4, Adenosine receptor A1 (Homo sapiens, UniProt P30542)
T4 sequence (P30542 whole entry): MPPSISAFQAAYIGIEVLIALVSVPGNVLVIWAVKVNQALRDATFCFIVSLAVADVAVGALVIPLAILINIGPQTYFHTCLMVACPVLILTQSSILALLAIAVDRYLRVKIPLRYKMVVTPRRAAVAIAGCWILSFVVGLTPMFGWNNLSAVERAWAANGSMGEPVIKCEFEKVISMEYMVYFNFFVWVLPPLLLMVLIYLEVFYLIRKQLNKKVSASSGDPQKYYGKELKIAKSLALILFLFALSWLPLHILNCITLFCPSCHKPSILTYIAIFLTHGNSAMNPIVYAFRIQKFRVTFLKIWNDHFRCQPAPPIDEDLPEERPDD

D(3) dopamine receptor = D(3) dopamine receptor (Homo sapiens, UniProt P35462)
[4] = target: T5, Prostaglandin G/H synthase 1 (Rattus norvegicus, UniProt Q63921); assay type: functional
T5 sequence (Q63921 whole entry): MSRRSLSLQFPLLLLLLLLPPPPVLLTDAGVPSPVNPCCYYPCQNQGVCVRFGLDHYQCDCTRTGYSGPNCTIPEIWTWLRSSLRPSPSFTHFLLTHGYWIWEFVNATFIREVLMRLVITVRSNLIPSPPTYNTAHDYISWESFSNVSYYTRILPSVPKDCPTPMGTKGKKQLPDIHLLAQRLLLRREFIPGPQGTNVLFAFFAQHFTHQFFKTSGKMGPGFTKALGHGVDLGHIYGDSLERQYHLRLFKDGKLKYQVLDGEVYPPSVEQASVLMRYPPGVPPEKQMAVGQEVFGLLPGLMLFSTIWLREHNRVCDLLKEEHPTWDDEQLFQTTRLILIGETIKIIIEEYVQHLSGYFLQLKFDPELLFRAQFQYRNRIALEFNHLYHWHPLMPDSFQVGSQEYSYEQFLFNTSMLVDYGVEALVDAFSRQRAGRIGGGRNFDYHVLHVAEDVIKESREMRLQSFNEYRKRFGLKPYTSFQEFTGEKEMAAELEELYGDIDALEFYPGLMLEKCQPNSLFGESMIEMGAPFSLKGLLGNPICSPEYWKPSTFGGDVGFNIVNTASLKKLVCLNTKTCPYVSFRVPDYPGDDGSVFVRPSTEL

D(1A) dopamine receptor = D(1A) dopamine receptor (Homo sapiens, UniProt P21728); assay type: functional, cell-based
Further: assay procedure not described here.

Sequence of Prostaglandin G/H synthase 1 (Homo sapiens, UniProt P23219) (P23219 whole entry): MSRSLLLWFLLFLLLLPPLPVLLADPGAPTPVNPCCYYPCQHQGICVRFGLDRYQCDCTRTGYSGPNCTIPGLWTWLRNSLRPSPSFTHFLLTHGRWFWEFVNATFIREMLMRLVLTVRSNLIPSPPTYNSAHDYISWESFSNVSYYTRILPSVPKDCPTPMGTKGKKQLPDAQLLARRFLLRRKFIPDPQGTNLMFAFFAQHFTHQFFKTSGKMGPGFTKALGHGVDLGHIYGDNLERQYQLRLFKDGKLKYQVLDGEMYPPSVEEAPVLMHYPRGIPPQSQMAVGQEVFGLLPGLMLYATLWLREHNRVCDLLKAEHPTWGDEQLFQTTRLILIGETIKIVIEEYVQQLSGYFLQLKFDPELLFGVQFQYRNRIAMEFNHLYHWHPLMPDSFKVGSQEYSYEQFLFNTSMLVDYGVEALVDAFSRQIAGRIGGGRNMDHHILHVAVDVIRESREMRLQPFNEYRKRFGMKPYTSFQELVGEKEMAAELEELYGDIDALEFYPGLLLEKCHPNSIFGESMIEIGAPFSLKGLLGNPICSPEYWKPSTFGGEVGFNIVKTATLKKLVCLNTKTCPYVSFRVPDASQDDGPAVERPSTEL
Sequence of D(3) dopamine receptor (P35462 whole entry): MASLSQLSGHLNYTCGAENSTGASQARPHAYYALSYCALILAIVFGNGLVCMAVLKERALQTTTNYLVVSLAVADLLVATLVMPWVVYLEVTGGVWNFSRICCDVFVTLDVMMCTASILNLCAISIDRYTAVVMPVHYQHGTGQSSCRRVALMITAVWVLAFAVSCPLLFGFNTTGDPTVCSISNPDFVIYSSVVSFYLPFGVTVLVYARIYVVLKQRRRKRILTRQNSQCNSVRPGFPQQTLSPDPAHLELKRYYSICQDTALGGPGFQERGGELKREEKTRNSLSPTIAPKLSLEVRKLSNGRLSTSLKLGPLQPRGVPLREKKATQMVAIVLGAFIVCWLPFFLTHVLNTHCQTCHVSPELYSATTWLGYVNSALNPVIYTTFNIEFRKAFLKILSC
Sequence of D(1A) dopamine receptor (P21728 whole entry): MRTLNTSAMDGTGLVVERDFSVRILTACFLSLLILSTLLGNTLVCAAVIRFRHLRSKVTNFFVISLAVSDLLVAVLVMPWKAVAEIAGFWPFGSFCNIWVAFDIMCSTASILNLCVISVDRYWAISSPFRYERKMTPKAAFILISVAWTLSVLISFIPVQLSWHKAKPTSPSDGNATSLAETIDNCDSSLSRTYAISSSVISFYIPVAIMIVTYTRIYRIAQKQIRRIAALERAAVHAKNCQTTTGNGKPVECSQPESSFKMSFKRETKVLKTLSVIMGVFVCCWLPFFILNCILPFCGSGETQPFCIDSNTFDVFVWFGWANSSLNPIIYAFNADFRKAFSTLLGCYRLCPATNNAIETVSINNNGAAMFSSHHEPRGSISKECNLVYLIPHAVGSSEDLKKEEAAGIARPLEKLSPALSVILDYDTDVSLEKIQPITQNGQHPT

| SMILES | AC50 [1] | AC50 [2] | AC50 [3] | AC50 (Androgen receptor) | AC50 (Adenosine receptor A1) | AC50 (D(3) dopamine receptor) | AC50 [4] | AC50 (D(1A) dopamine receptor) |
| --- | --- | --- | --- | --- | --- | --- | --- | --- |
| Cc1cc2c(cc1S(N)(=O)=O)S(=O)(=O)CCC2 | > 30 µM | > 30 µM | > 30 µM | – | – | – | – | – |
| C[C@H](N[C@@H](CCc1ccccc1)C(=O)O)C(=O)N1Cc2ccccc2C[C@H]1C(=O)O | > 30 µM | > 30 µM | > 30 µM | > 30 µM | – | – | – | – |
| O=C(O)[C@@H]1C[C@@H](O)CN1 | > 30 µM | > 30 µM | > 30 µM | > 30 µM | – | – | – | – |
| CC1(C)S[C@@H]2[C@H](/N=C/N3CCCCCC3)C(=O)N2[C@H]1C(=O)O [AMDINOCILLIN] | > 30 µM | > 30 µM | > 30 µM | – | – | – | – | – |
| CC(=O)[C@]1(N)Cc2c(O)c3c(c(O)c2[C@@H](O[C@H]2C[C@H](O)[C@H](O)CO2)C1)C(=O)c1ccccc1C3=O [AMRUBICIN] | > 3 µM | 2.81 µM | > 3 µM | > 30 µM | – | – | – | – |
| NC(=O)[C@@H]1CC[C@@H]2CN1C(=O)N2OS(=O)(=O)O [AVIBACTAM] | > 30 µM | > 30 µM | > 30 µM | > 30 µM | – | – | – | – |
| CC(=O)OC[C@H]1O[C@@H](n2ncc(=O)[nH]c2=O)[C@H](OC(C)=O)[C@@H]1OC(C)=O [AZARIBINE] | – | > 30 µM | > 30 µM | > 30 µM | – | – | – | – |
| O=C(/C=C/c1cccc(S(=O)(=O)Nc2ccccc2)c1)NO [BELINOSTAT] | – | 6.9 µM | – | > 30 µM | > 30 µM | > 30 µM | – | – |
| CC(C)(C)NC(=O)N[C@H](C(=O)N1C[C@H]2[C@@H]([C@H]1C(=O)NC(CC1CCC1)C(=O)C(N)=O)C2(C)C)C(C)(C)C (stereo partly drawn) [BOCEPREVIR] | > 30 µM | > 30 µM | > 30 µM | > 30 µM | – | – | – | – |
| Cc1ncc2c(c1O)COC2c1ccc(Cl)cc1 (stereo not drawn) [CICLETANINE] | > 30 µM | > 30 µM | > 30 µM | > 30 µM | – | – | – | – |
| Cc1cn([C@H]2O[C@@H](CO)[C@H](O)[C@H]2F)c(=O)[nH]c1=O [CLEVUDINE] | > 30 µM | > 30 µM | > 30 µM | – | – | – | – | – |
| N#Cc1ccc(Oc2ccc3c(c2)COB3O)cc1 [CRISABOROLE] | 13.7 µM | > 30 µM | 4.32 µM | > 30 µM | – | – | – | – |
| CC(=O)[C@H]1CC[C@H]2[C@@H]3C=CC4=CC(=O)CC[C@@]4(C)[C@@H]3CC[C@]12C [DYDROGESTERONE] | 5.06 µM | > 30 µM | 29.2 µM | – | – | – | – | – |
| CC(=O)O[C@H]1Cc2ccccc2N(C(N)=O)c2ccccc21 [ESLICARBAZEPINE ACETATE] | > 30 µM | > 30 µM | > 30 µM | > 30 µM | – | – | – | – |
| Cc1ccc(S(=O)(=O)NC(=O)NC2CCCCC2)cc1 [GLYCYCLAMIDE] | > 30 µM | > 30 µM | > 30 µM | – | – | – | – | – |
| CN1CCCN(C(c2ccccc2)c2ccc(Cl)cc2)CC1 (stereo not drawn) [HOMOCHLORCYCLIZINE] | 0.12 µM | > 30 µM | 2.89 µM | > 30 µM | – | – | – | – |
| CC(=O)OCC(=O)[C@@]1(O)CC[C@H]2[C@@H]3CCC4=CC(=O)CC[C@]4(C)[C@H]3[C@@H](O)C[C@@]21C [HYDROCORTISONE ACETATE] | 17.7 µM | > 30 µM | > 30 µM | – | – | – | – | – |
| CC(COc1ccccc1)NC(C)C(O)c1ccc(O)cc1 (stereo not drawn) [ISOXSUPRINE] | > 30 µM | > 30 µM | 1.04 µM | – | – | – | – | – |
| O=C(CCC/C=C\C[C@@H]1[C@@H](CC[C@@H](O)CCc2ccccc2)[C@H](O)C[C@@H]1O)OCCCCO[N+](=O)[O-] [LATANOPROSTENE BUNOD] | > 10 µM | 13.5 µM | > 10 µM | > 30 µM | – | – | – | – |
| Cc1oc(=O)oc1COC(=O)[C@@H]1N2C(=O)[C@@H](NC(=O)[C@H](N)c3ccccc3)[C@H]2SC1(C)C [LENAMPICILLIN] | 9.21 µM | > 30 µM | 24.5 µM | > 30 µM | – | – | – | – |
| COc1ccc(OC)c(C(O)C(C)N)c1 (stereo not drawn) [METHOXAMINE] | > 30 µM | > 30 µM | – | > 30 µM | – | – | – | – |
| CC1(CCN2CCCCC2)C(=O)CCc2ccccc21 (stereo not drawn) [NEPINALONE] | > 30 µM | > 30 µM | > 30 µM | > 30 µM | – | – | – | – |
| CC[N+](C)(CC)CCOC(=O)C(O)(c1ccccc1)C1CCCCC1 (stereo not drawn) [OXYPHENONIUM] | 0.003 µM | > 30 µM | > 30 µM | – | – | – | – | – |
| CCC[C@H](N[C@@H](C)C(=O)N1[C@H](C(=O)O)C[C@@H]2CCCC[C@@H]21)C(=O)OCC [PERINDOPRIL] | > 30 µM | > 30 µM | > 30 µM | – | – | – | – | – |
| N[C@@H](Cc1ccccc1)C(=O)O [PHENYLALANINE] | > 30 µM | > 30 µM | > 30 µM | – | – | – | – | – |
| COC(=O)[C@H]1[C@H]2C[C@@H]3c4[nH]c5cc(OC)ccc5c4CCN3C[C@H]2C[C@@H](OC(=O)c2cc(OC)c(OC)c(OC)c2)[C@@H]1OC [RESERPINE] | – | > 30 µM | > 30 µM | – | > 30 µM | > 30 µM | 18.8 µM | > 10 µM |
| Clc1ccc(C(Cn2ccnc2)OCc2csc3c(Cl)cccc23)c(Cl)c1 (stereo not drawn) [SERTACONAZOLE] | 9.44 µM | 5.34 µM | – | 0.0201 µM | – | – | – | – |
| CC(OCCN1CCCCCC1)(c1ccccc1)c1ccc(Cl)cc1 (stereo not drawn) [SETASTINE] | 0.493 µM | > 30 µM | – | > 30 µM | – | – | – | – |
| O=S1(=O)CCN(CN2CCS(=O)(=O)NC2)CN1 [TAUROLIDINE] | – | > 30 µM | – | > 30 µM | – | 27 µM | > 30 µM | > 30 µM |
| c1ccc2c(SC3=NCCN3)c[nH]c2c1 [TINAZOLINE] | > 30 µM | > 30 µM | – | > 30 µM | – | – | – | – |
